Source: patent US8952024B2, “Herbicidal pyrimidone derivatives” (E I du Pont de Nemours and Company, priority 2009, dated 2015)

Columns and labels:
Type in all cases: in vivo
[1] = system: winter barley (Hordeum vulgare); assay: Test B postemergence plant response; conditions: for Barley plant response rating (0 to 100 scale): 62 g ai/ha, 0 is no effect, 13 to 15 days
Method in brief: (§1)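 Visual ratings from 0 (no effect) to 100 (complete control), made against controls 13–15 days after treatment, kept in a greenhouse. Compounds were applied postemergence to potted plants at the 1- to 4-leaf stage (2–18 cm).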

[2] = system: chickweed (Stellaria media); assay: Test B postemergence plant response; conditions: for Chickweed plant response rating (0 to 100 scale): 62 g ai/ha, 0 is no effect, 13 to 15 days
Method in brief: as §1

[3] = system: windgrass (Apera spica-venti); assay: Test B postemergence plant response; conditions: for Windgrass plant response rating (0 to 100 scale): 62 g ai/ha, 0 is no effect, 13 to 15 days
Method in brief: as §1

[4] = system: canarygrass (Phalaris minor); assay: Test B postemergence plant response; conditions: for Canarygrass plant response rating (0 to 100 scale): 62 g ai/ha, 0 is no effect, 13 to 15 days
Method in brief: as §1

[5] = system: bermudagrass (Cynodon dactylon); assay: Test B pre-/postemergence plant response; conditions: for Bermudagrass plant response rating (0 to 100 scale): 62 g ai/ha, 0 is no effect, 13 to 15 days
Method in brief: (§2)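 Test compounds, formulated in a non-phytotoxic solvent mixture with surfactant, are applied to the soil surface (loam and sand blend) right after seeding, or sprayed over plants at the 1- to 4-leaf stage grown in peat moss/vermiculite medium. After 13 to 15 days under glasshouse conditions, each species is scored visually from 0 (no effect) to 100 (complete control) against controls.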

[6] = system: morningglory (Ipomoea coccinea); assay: Test B pre-/postemergence plant response; conditions: for Morningglory plant response rating (0 to 100 scale): 62 g ai/ha, 0 is no effect, 13 to 15 days
Method in brief: as §2

[7] = system: barnyardgrass (Echinochloa crus-galli); assay: Test B flooded paddy test; conditions: for Plant response rating, Flood, Barnyardgrass: 250 g ai/ha, flooded paddy test, visual rating on 0 to 100 scale (0 no effect, 100 complete control) after 13 to 15 days; for Plant response rating, Barnyardgrass: Flood (flooded paddy test), 13 to 15 days; for Barnyardgrass plant response rating: Flood, 31 g ai/ha, scale 0 to 100 (0 no effect, 100 complete control)
Method in brief: (§3)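 Ratings are visual, 0–100 (100 = complete control), taken versus untreated controls 13 to 15 days after treatment in the greenhouse. Compound went straight into paddy water held 3 cm above soil, applied to 2-leaf-stage plants of four species.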

[8] = system: umbrella sedge (Cyperus difformis); assay: Test B flooded paddy test; conditions: for Plant response rating, Flood, Sedge, Umbrella: 250 g ai/ha, flooded paddy test, visual rating on 0 to 100 scale (0 no effect, 100 complete control) after 13 to 15 days; for Plant response rating, Sedge, Umbrella: Flood (flooded paddy test), 13 to 15 days; for Sedge, Umbrella plant response rating: Flood, 31 g ai/ha, scale 0 to 100 (0 no effect, 100 complete control)
Method in brief: as §3

rice (Oryza sativa) = assay: Test B flooded paddy test; conditions: for Plant response rating, Flood, Rice: 250 g ai/ha, flooded paddy test, visual rating on 0 to 100 scale (0 no effect, 100 complete control) after 13 to 15 days; for Plant response rating, Rice: Flood (flooded paddy test), 13 to 15 days; for Rice plant response rating: Flood, 31 g ai/ha, scale 0 to 100 (0 no effect, 100 complete control)
Method in brief: as §3

[9] = system: ducksalad (Heteranthera limosa); assay: Test B flooded paddy test; conditions: for Plant response rating, Flood, Ducksalad: 250 g ai/ha, flooded paddy test, visual rating on 0 to 100 scale (0 no effect, 100 complete control) after 13 to 15 days; for Plant response rating, Ducksalad: Flood (flooded paddy test), 13 to 15 days; for Ducksalad plant response rating: Flood, 31 g ai/ha, scale 0 to 100 (0 no effect, 100 complete control)
Method in brief: as §3

[10] = postemergence, 100 is complete control
[11] = Postemergence, 31 g ai/ha, 0 to 100 scale (0 no effect, 100 complete control)
[12] = Postemergence, 125 g ai/ha, scale 0 to 100 (0 no effect, 100 complete control)
[13] = Postemergence, 250 g ai/ha, scale 0 to 100 (0 no effect, 100 complete control)
[14] = 62 g ai/ha, scale of 0 to 100 where 0 is no effect and 100 is complete control
[15] = 125 g ai/ha, scale 0 to 100, 0 is no effect, 100 is complete control
[16] = 31 g ai/ha, postemergence, scale 0 to 100, 0 is no effect, 100 is complete control
[17] = Postemergence, 125 g ai/ha, visual rating after 13 to 15 days, scale 0 (no effect) to 100 (complete control)

Compound	Barley plant response rating (0 to 100 scale) [1, 10]	Plant response rating, Barley [1, 13]	Chickweed plant response rating (0 to 100 scale) [2, 10]	Plant response rating, Chickweed [2, 13]	Windgrass plant response rating (0 to 100 scale) [3, 10]	Canarygrass plant response rating (0 to 100 scale) [4, 10]	Plant response rating, Canarygrass [4, 13]	Bermudagrass plant response rating (0 to 100 scale) [5, 10]	Plant response rating, Bermudagrass [5, 13]	Morningglory plant response rating (0 to 100 scale) [6, 10]	Plant response rating, Morningglory [6, 13]	Plant response rating, Flood, Barnyardgrass [7]	Plant response rating, Barnyardgrass [7, 14]	Plant response rating, Barnyardgrass [7, 15]	Barnyardgrass plant response rating [7]	Plant response rating, Flood, Sedge, Umbrella [8]	Plant response rating, Sedge, Umbrella [8, 14]	Plant response rating, Sedge, Umbrella [8, 15]	Sedge, Umbrella plant response rating [8]	Plant response rating, Flood, Rice (rice (Oryza sativa))	other results
COCCCn1c(-c2cccc(F)c2)ncc(C(=O)C2=C(O)CCCC2=O)c1=O [Compound 126]	5	40	80	98	10	40	90	85	95	85	100	75	45	60	20	85	70	80	50	15	Plant response rating, Barley [1, 11]: 5; Plant response rating, Barley [1, 12]: 15; Plant response rating, Chickweed [2, 11]: 65; Plant response rating, Chickweed [2, 12]: 98; Plant response rating, Windgrass [3, 11]: 10; Plant response rating, Windgrass [3, 12]: 40; Plant response rating, Canarygrass [4, 11]: 15; Plant response rating, Canarygrass [4, 12]: 60; Plant response rating, Bermudagrass [5, 11]: 75; Plant response rating, Bermudagrass [5, 12]: 90; Plant response rating, Morningglory [6, 11]: 75; Plant response rating, Morningglory [6, 12]: 100; Plant response rating, Rice (rice (Oryza sativa); [14]): 0; Plant response rating, Rice (rice (Oryza sativa); [15]): 0; Rice plant response rating (rice (Oryza sativa)): 0; Plant response rating, Flood, Ducksalad [9]: 85; Plant response rating, Ducksalad [9, 14]: 80; Plant response rating, Ducksalad [9, 15]: 85; Ducksalad plant response rating [9]: 75
O=C1CCCC(O)=C1C(=O)c1cnc(-c2ccccc2)n(C2CC2)c1=O [Compound 90]	5	20	80	90	5	10	30	80	85	95	100	30	0	15	0	80	60	75	50	0	Plant response rating, Barley [1, 16]: 0; Plant response rating, Barley [1, 17]: 10; Plant response rating, Chickweed [2, 16]: 70; Plant response rating, Chickweed [2, 17]: 85; Plant response rating, Windgrass [3, 16]: 0; Plant response rating, Windgrass [3, 13]: 50; Plant response rating, Canarygrass [4, 16]: 5; Plant response rating, Canarygrass [4, 17]: 30; Plant response rating, Bermudagrass [5, 16]: 70; Plant response rating, Bermudagrass [5, 17]: 85; Plant response rating, Morningglory [6, 16]: 65; Plant response rating, Rice (rice (Oryza sativa); [14]): 0; Plant response rating, Rice (rice (Oryza sativa); [15]): 0; Rice plant response rating (rice (Oryza sativa)): 0; Plant response rating, Flood, Ducksalad [9]: 90; Plant response rating, Ducksalad [9, 14]: 65; Plant response rating, Ducksalad [9, 15]: 80; Ducksalad plant response rating [9]: 50
CCCc1ncc(C(=O)C2=C(O)CCCC2=O)c(=O)n1-c1cccc(C)c1 [Compound 79]	30	55	95	98	65	30	50	80	85	95	100	30	0	20	0	30	0	0	0	20	Plant response rating, Barley [1, 16]: 5; Plant response rating, Barley [1, 17]: 35; Plant response rating, Chickweed [2, 16]: 80; Plant response rating, Chickweed [2, 17]: 95; Plant response rating, Windgrass [3, 16]: 50; Plant response rating, Windgrass [3, 17]: 65; Plant response rating, Windgrass [3, 13]: 90; Plant response rating, Canarygrass [4, 16]: 15; Plant response rating, Canarygrass [4, 17]: 35; Plant response rating, Bermudagrass [5, 16]: 80; Plant response rating, Bermudagrass [5, 17]: 85; Plant response rating, Morningglory [6, 16]: 80; Plant response rating, Morningglory [6, 17]: 100; Plant response rating, Rice (rice (Oryza sativa); [14]): 0; Plant response rating, Rice (rice (Oryza sativa); [15]): 15; Rice plant response rating (rice (Oryza sativa)): 0; Plant response rating, Flood, Ducksalad [9]: 40; Plant response rating, Ducksalad [9, 14]: 0; Plant response rating, Ducksalad [9, 15]: 15; Ducksalad plant response rating [9]: 0
